# Data published in US12390421B2, “Zwitterionic dendritic amphiphiles, zwitterionic dendrimers, zwitterionic telodendrimers, nanocarriers comprising same, and methods of making and using same” (The Research Foundation for the State University of New York, priority 2017, dated 2025).
# Test system: SKOV-3 cancer cell
# Test: Cellular uptake of protein/drug loaded nanocarriers
# Format: cell-based
# Text: Cellular uptake of protein/drug delivered by zwitterionic nanocarriers. The internalization of protein/drug loaded zwitterionic nanocarrier was studied against SKOV-3 cancer cell. […] Folate targeting group modification facilitates FITC-BSA-loaded NP_CB internalization into cells compared to non-targeted NP_CB. […] The ability of NPs to deliver drug into cells was studied using DOX as model drug by taking advantage of its intricate fluorescence.
Molecule,"cellular uptake of DOX (SKOV-3, DOX free or loaded, 2 h)","cellular uptake of FITC-BSA (SKOV-3, FITC-BSA free or loaded, 1 h)"
"COc1cccc2c1C(=O)c1c(O)c3c(c(O)c1C2=O)C[C@@](O)(C(=O)CO)C[C@@H]3O[C@H]1C[C@H](N)[C@H](O)[C@H](C)O1.Cl [free DOX, Doxorubicin hydrochloride]",Strong fluorescence and absolute presence of DOX in nucleus,
"free FITC-BSA: FITC-labeled BSA, model protein",,no fluorescence signal
